# Experimental data as given in patent US9550792B2, “Polycyclic substituted pyrazole kinase activity inhibitors and use thereof” (priority 2013, dated 2017).
# “And” between values parts separate entries of the source, which are not always exact repeats. Equal values may be shown once. Read-outs that look alike come from different tables or passages of the source.
# Tests used:
# [1] = tested on: Phytophthora infestans; assay type: in vivo
# [2] = tested on: Candida parapsilosis; test: Antifungal activity, modified broth microdilution; assay type: cell-based; settings: Lodderomyces parapsilosis; 48 hours at 35, approximately 50% reduction of growth
# Procedure: (§1) The test microorganisms are maintained on Sabourahd Dextrose Agar slant at 4[…]. Singlet suspension of each microorganism is prepared by growing the yeast overnight at 27[…] on a rotating drum in yeast-nitrogen base broth (YNB) with amino acids (Difco, Detroit, Mich.), (pH 7.0) and 0.05 morpholine propanesulphonic acid (MOPS). […] The activity of the test compound is determined using a modified broth microdilution technique. […] Well 12 serves as a growth control. […] Inoculated plate is incubated for 48 hours at 35 °C. […] Minimal Cytolytic Concentration (MCC) is determined by subculturing all wells from the 96-well plate onto a Sabourahd Dextrose Agar (SDA) plate, incubating for 1-2 days at 35 °C, and then checking viability.
# [3] = tested on: Candida tropicalis; test: Antifungal activity, modified broth microdilution; assay type: cell-based; settings: Candida tropicalis; 48 hours at 35, approximately 50% reduction of growth
# Procedure: as §1
# [4] = tested on: Candida albicans - ATCC 36082; test: Antifungal activity, modified broth microdilution; assay type: cell-based; settings: Candida albicans, ATCC36082; 48 hours at 35, approximately 50% reduction of growth
# Procedure: as §1
# [5] = tested on: Cryptococcus neoformans; test: Antifungal activity, modified broth microdilution; assay type: cell-based; settings: Cryptococcus neoformans; 48 hours at 35, approximately 50% reduction of growth
# Procedure: as §1
# [6] = target: T1, FLT3 (Homo sapiens, UniProt P36888); test: Kinase IC50, 33P labeled isotope method; assay type: biochemical; settings: 20 μM ATP
# T1 sequence (P36888 610-943 limits assumed): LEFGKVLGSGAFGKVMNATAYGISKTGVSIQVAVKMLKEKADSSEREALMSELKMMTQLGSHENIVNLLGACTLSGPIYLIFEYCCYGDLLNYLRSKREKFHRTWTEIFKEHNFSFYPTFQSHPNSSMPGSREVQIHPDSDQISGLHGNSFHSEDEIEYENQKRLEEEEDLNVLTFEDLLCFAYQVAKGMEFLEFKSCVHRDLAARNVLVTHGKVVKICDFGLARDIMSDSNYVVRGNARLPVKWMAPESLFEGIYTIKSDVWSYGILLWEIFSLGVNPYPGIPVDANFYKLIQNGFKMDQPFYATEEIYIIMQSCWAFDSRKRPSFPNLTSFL
# [7] = target: CDK9/cyclin K (Homo sapiens, UniProt P50750); test: Kinase IC50, 33P labeled isotope method; assay type: biochemical; settings: 20 μM ATP
# [8] = target: GSK3b (Homo sapiens, UniProt P49841); test: Kinase IC50, 33P labeled isotope method; assay type: biochemical; settings: 20 μM ATP
# [9] = tested on: colon cancer cell line HCT116; test: Anti-tumor activity in vitro, MTT method; assay type: cell-based; settings: Homo sapiens, HCT-116, 48 h
# [10] = Pharmacokinetics after single oral dose in rats; assay type: in vivo, Wistar rat
# Procedure: (§2) 300 μL blood collected from the rat was mixed with 30 μL methanol and 2 mL ethyl acetate. The samples were vortexed for 3 min and centrifuged at 4000 rpm for 15 min. The supernatant was introduced into another centrifugal tube. The lower layer was repeatedly extracted and then the supernatants were combined and dried with nitrogen gas. After redissolution with 150 μL methanol, they were filtered by 0.22 μm membrane and then subjected to analysis with a injection volume of 20 μL.
# An amount of compound was taken accurately to prepare CMC-Na aqueous solution containing 3 mg/mL of drug. 12 healthy male Wister rats were randomly assigned to two groups, each group including 6 rats. The first group was administrated orally compound 1. The second group was administrated orally compound 2. The doses were both 30 mg/kg (corresponding to 2 mL for each rat). The rats were fasting for 12 h before administration and free access to water. 0.6 mL blood samples were collected at 0.5, 1, 1.5, 2, 2.5, 3, 5, 8, 12 and 24 h after drug administration from the venous sinuses and added into EP tubes which were rinsed with heparin sodium previously. The samples were centrifuged at 4,000 r/min for 15 min and the upper plasma were obtained. 300 μL plasma was subjected to analysis and the chromatogram and peak area were recorded. The plasma concentrations of compounds 1 and 2 were calculated to give average concentration-time curve.
# DAS 2.0 program was used to analyze plasma concentration vs. time data after s single oral dose (Table 6, 7). Fitting and the AIC methods were used to determine the model. The analysis was based on the principle that the larger fitting and the smaller AIC, the better model. The oral administration was consistent with the two-compartment model. The statistical distance parameter is used to compare the 2 compounds for the pharmacokinetic parameters.
# [11] = Plasma stability; assay type: in vitro ADME; settings: rat plasma
# Procedure: as §2
# […] The samples were prepared according to the method of 3.1. 20 μL were introduced into the HPLC system and the peak area is recorded for analysis to determine the stability of compound 1 and 2 in plasma.
# [12] = male, Wistar, plasma, rat, oral 30 mg/kg
# CDK9/cyclin K, sequence (P50750 19-315 limits assumed): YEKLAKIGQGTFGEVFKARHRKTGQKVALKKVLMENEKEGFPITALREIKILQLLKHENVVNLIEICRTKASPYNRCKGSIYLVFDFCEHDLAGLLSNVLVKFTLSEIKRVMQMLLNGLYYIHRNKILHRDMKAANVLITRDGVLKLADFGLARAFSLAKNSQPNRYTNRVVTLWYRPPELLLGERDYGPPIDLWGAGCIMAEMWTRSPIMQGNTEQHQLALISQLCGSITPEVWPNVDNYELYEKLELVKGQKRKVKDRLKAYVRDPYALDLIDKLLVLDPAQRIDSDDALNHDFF
# CDK9/cyclin K, sequence (O75909 whole entry partner): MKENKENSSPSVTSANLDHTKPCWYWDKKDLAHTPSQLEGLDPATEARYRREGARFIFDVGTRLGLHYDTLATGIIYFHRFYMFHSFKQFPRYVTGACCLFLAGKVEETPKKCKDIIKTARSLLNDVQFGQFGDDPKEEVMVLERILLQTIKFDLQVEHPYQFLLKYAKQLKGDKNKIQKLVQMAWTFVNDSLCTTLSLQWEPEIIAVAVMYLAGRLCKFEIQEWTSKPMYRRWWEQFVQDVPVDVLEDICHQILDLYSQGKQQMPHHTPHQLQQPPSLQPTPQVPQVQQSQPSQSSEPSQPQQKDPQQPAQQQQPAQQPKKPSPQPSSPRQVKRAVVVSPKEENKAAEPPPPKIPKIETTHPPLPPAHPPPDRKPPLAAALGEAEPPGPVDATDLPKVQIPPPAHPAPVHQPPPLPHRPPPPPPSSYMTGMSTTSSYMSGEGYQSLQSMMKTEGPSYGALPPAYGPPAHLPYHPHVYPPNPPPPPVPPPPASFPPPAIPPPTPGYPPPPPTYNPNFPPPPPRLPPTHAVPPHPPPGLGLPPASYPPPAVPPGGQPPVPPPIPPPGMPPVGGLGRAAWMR
# GSK3b, sequence (P49841 56-340 limits assumed): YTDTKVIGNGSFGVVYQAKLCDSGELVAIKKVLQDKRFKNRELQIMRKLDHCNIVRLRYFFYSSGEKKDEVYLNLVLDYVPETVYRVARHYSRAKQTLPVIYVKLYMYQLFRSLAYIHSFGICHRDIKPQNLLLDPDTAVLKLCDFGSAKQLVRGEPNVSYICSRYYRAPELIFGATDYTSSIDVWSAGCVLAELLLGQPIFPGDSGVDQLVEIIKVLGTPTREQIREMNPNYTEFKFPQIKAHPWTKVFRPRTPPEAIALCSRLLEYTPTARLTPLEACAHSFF
smiles,measurement,setting,value
"Cc1cc2c(Nc3c[nH]nc3C(=O)Nc3ccc(CN4CCN(C)CC4)cc3)nccc2s1 [Compound I-27, 4-(4-(2-methylthieno[3,2-c]pyridyl)amino)-N-(4-((4-methyl-1-piperazinyl)methyl)phenyl)-1H-3-pyrazolecarboxamide]",Severity of tomato leaf blight,[1]; 0.0001 (unit not given),++++ (>60% blight)
same,Severity of tomato leaf blight,[1]; 0.001 (unit not given),++ (15-40% blight)
same,Severity of tomato leaf blight,[1]; 0.01 (unit not given),+ (0-15% blight)
same,Severity of tomato leaf blight,[1]; 0.1 (unit not given),−
same,MIC,[2],1.02 µg/mL
same,MIC,[3],3.57 µg/mL
same,MIC,[4],5.48 µg/mL
same,MIC,[5],4.06 µg/mL
same,IC50,[6],1 nM
same,IC50,[7],43 nM
same,IC50,[8],1 nM
same,melting point,,267 to 269 °C
"CN1CCN(Cc2ccc(NC(=O)c3n[nH]cc3Nc3ncnc4sccc34)cc2)CC1 [Compound I-1, 4-(4-thieno[2,3-d]pyrimidinylamino)-N-(4-((4-methyl-1-piperazinyl)methyl)phenyl)-1H-3-pyrazole carboxamide]",Severity of tomato leaf blight,[1]; 0.0001 (unit not given),+++ (40-60% blight)
same,Severity of tomato leaf blight,[1]; 0.001 (unit not given),++ (15-40% blight)
same,Severity of tomato leaf blight,[1]; 0.01 (unit not given),+ (0-15% blight)
same,Severity of tomato leaf blight,[1]; 0.1 (unit not given),−
same,MIC,[2],2.08 µg/mL
same,MIC,[3],2.3 µg/mL
same,MIC,[4],2.9 µg/mL
same,MIC,[5],3.64 µg/mL
same,IC50,[9]; read-out: HCT116 (IC50/μM),0.25 µM
same,IC50,[9]; read-out: HCT-116 (IC50/μM),0.13 µM
same,Cmax,[10]; [12],241 ± 103 ng/mL
same,Tmax,[10]; [12],5.5 ± 2.29 h
same,half-life,[10]; [12],45.8 ± 29.1 h
same,AUC(0-t),"[10]; male, Wistar, plasma, rat, oral 30 mg/kg, read-out: AUC 0-24",3350 ± 468 ng·h/mL
same,MRT last,"[10]; male, Wistar, plasma, rat, oral 30 mg/kg, read-out: MRT 0-24",11.6 ± 1.09 h
same,concentration at 0.5 h,"[10]; male, Wistar, rat, plasma, po, 30 mg/kg, mean of rats, oral 30 mg/kg, time 0.5 h, read-out: Plasma concentration, mean",72.7 ng/mL
same,concentration at 1 h,"[10]; male, Wistar, rat, plasma, po, 30 mg/kg, mean of rats, oral 30 mg/kg, time 1 h, read-out: Plasma concentration, mean",82.8 ng/mL
same,concentration at 2 h,"[10]; male, Wistar, rat, plasma, po, 30 mg/kg, mean of rats, oral 30 mg/kg, time 2 h, read-out: Plasma concentration, mean",103 ng/mL
same,concentration at 2.5 h,"[10]; male, Wistar, rat, plasma, po, 30 mg/kg, mean of rats, oral 30 mg/kg, time 2.5 h, read-out: Plasma concentration, mean",113 ng/mL
same,concentration at 3 h,"[10]; male, Wistar, rat, plasma, po, 30 mg/kg, mean of rats, oral 30 mg/kg, time 3 h",154 ng/mL
same,concentration at 5 h,"[10]; male, Wistar, rat, plasma, po, 30 mg/kg, mean of rats, oral 30 mg/kg, time 5 h",164 ng/mL
same,concentration at 8 h,"[10]; male, Wistar, rat, plasma, po, 30 mg/kg, mean of rats, oral 30 mg/kg, time 8 h, read-out: Plasma concentration, mean",195 ng/mL
same,concentration at 12 h,"[10]; male, Wistar, rat, plasma, po, 30 mg/kg, mean of rats, oral 30 mg/kg, time 12 h, read-out: Plasma concentration, mean",134 ng/mL
same,concentration at 24 h,"[10]; male, Wistar, rat, plasma, po, 30 mg/kg, mean of rats, oral 30 mg/kg, time 24 h",123 ng/mL
same,concentration at 0.5 h,"[10]; male, Wistar, rat, plasma, po, 30 mg/kg, rat No. 1-6, oral 30 mg/kg, time 0.5 h, read-out: Plasma concentration, individual rats",68.8 ng/mL
same,concentration at 1 h,"[10]; male, Wistar, rat, plasma, po, 30 mg/kg, rat No. 1-6, oral 30 mg/kg, time 1 h, read-out: Plasma concentration, individual rats",105 ng/mL
same,concentration at 2 h,"[10]; male, Wistar, rat, plasma, po, 30 mg/kg, rat No. 1-6, oral 30 mg/kg, time 2 h, read-out: Plasma concentration, individual rats",114 ng/mL
same,concentration at 2.5 h,"[10]; male, Wistar, rat, plasma, po, 30 mg/kg, rat No. 1-6, oral 30 mg/kg, time 2.5 h, read-out: Plasma concentration, individual rats",100 ng/mL
same,concentration at 8 h,"[10]; male, Wistar, rat, plasma, po, 30 mg/kg, rat No. 1-6, oral 30 mg/kg, time 8 h, read-out: Plasma concentration, individual rats",157 ng/mL
same,concentration at 12 h,"[10]; male, Wistar, rat, plasma, po, 30 mg/kg, rat No. 1-6, oral 30 mg/kg, time 12 h, read-out: Plasma concentration, individual rats",108 ng/mL
same,"Plasma concentration, individual rats","[10]; rat No. 1-6, oral 30 mg/kg, time 0.5 h, 30 mg/kg",68.95 ng*ml/1 and 65.08 ng*ml/1 and 76.41 ng*ml/1 and 80.51 ng*ml/1 and 76.52 ng*ml/1
same,"Plasma concentration, individual rats","[10]; rat No. 1-6, oral 30 mg/kg, time 1 h, 30 mg/kg",65.58 ng*ml/1 and 73.81 ng*ml/1 and 81.17 ng*ml/1 and 80.91 ng*ml/1 and 90.92 ng*ml/1
same,"Plasma concentration, individual rats","[10]; rat No. 1-6, oral 30 mg/kg, time 2 h, 30 mg/kg",97.96 ng*ml/1 and 100.94 ng*ml/1 and 86.23 ng*ml/1 and 86.97 ng*ml/1 and 132.81 ng*ml/1
same,"Plasma concentration, individual rats","[10]; rat No. 1-6, oral 30 mg/kg, time 2.5 h, 30 mg/kg",96.8 ng*ml/1 and 113.35 ng*ml/1 and 104.16 ng*ml/1 and 106.91 ng*ml/1 and 158.41 ng*ml/1
same,"Plasma concentration, individual rats","[10]; rat No. 1-6, oral 30 mg/kg, time 3 h, 30 mg/kg",149.67 ng*ml/1 and 112.43 ng*ml/1 and 125.86 ng*ml/1 and 78.87 ng*ml/1 and 266.46 ng*ml/1 and 191.06 ng*ml/1
same,"Plasma concentration, individual rats","[10]; rat No. 1-6, oral 30 mg/kg, time 5 h, 30 mg/kg",174.04 ng*ml/1 and 159.33 ng*ml/1 and 115.59 ng*ml/1 and 172.92 ng*ml/1 and 127.6 ng*ml/1 and 232.81 ng*ml/1
same,"Plasma concentration, individual rats","[10]; rat No. 1-6, oral 30 mg/kg, time 8 h, 30 mg/kg",150.59 ng*ml/1 and 233.26 ng*ml/1 and 151.83 ng*ml/1 and 271.51 ng*ml/1 and 205.77 ng*ml/1
same,"Plasma concentration, individual rats","[10]; rat No. 1-6, oral 30 mg/kg, time 12 h, 30 mg/kg",135.84 ng*ml/1 and 153.29 ng*ml/1 and 135.94 ng*ml/1 and 110.59 ng*ml/1 and 162.93 ng*ml/1
same,"Plasma concentration, individual rats","[10]; rat No. 1-6, oral 30 mg/kg, time 24 h, 30 mg/kg",126.6 ng*ml/1 and 105.83 ng*ml/1 and 167.23 ng*ml/1 and 133.16 ng*ml/1 and 79.81 ng*ml/1 and 123.91 ng*ml/1
same,pharmacokinetic parameters (in words),"[10]; rat, oral 30 mg/kg",acceptable
same,IC50,[7],39 nM
same,plasma stability in 24 h (in words),[11]; 24 h,good plasma stability
same,Plasma stability (HPLC reading),[11]; Time 0 h,2.16
same,Plasma stability (HPLC reading),[11]; Time 1 h,2.24
same,Plasma stability (HPLC reading),[11]; Time 2 h,2.22
same,Plasma stability (HPLC reading),[11]; Time 3 h,2.12
same,Plasma stability (HPLC reading),[11]; Time 5 h,2.11
same,Plasma stability (HPLC reading),[11]; Time 8 h,1.91
same,Plasma stability (HPLC reading),[11]; Time 12 h,1.84
same,Plasma stability (HPLC reading),[11]; Time 24 h,1.95
"Cc1cc2c(Nc3c[nH]nc3C(=O)Nc3ccc(CN4CCN(C)CC4)cc3)ncnc2[nH]1 [Compound I-13, 4-(4-(6-methyl-7H-pyrrolo[2,3-d]pyrimidinyl)amino)-N-(4-((4-methyl-1-piperazinyl)methyl)phenyl)-1H-3-pyrazolecarboxamide]",Severity of tomato leaf blight,[1]; 0.0001 (unit not given),++ (15-40% blight)
same,Severity of tomato leaf blight,[1]; 0.001 (unit not given),++ (15-40% blight)
same,Severity of tomato leaf blight,[1]; 0.01 (unit not given),+ (0-15% blight)
same,Severity of tomato leaf blight,[1]; 0.1 (unit not given),−
same,MIC,[2],0.98 µg/mL
same,MIC,[3],3.24 µg/mL
same,MIC,[4],5.85 µg/mL
same,MIC,[5],4.23 µg/mL
same,IC50,[6],1 nM
same,IC50,[7],43 nM
same,IC50,[8],1 nM
same,melting point,,268 to 270 °C
